Test system: Bastardhunden
Test: Haemodynamic study of antianginal and antihypertensive effect in anaesthetised mongrel dogs
Assay type: in vivo
Conditions: change from steady state
Procedure: Die Untersuchungen über die antianginöse und antihypertensive Wirkung der Verbindungen der Formel I wurden an Bastardhunden beiderlei Geschlechts in Pentobarbital-Narkose (30 bis 40 mg/kg i.v.) oder in Urethan-Chloralose-Narkose (3 ml/kg Urethan-Chloralose-Gemisch i.v. = 20 mg/kg Chloralose und 250 mg/kg Urethan) durchgeführt. Die Beatmung der Tiere erfolgte mit einem Bird-Mark-7-Respi- rator. […] Während des gesamten Versuchs erhielten die Tiere mit Pentobarbital-Narkose eine Dauerinfusion von Pentobarbital i.v. = 4 mg/kg/6ml/h, um eine konstante Narkosetiefe zu gewährleisten; die Tiere mit Urethan-Chloralose-Narkose erhielten keine Dauerinfusion. Die Infusion wurde durch die Vena cephalica gegeben. Nach der Präparation des Versuchstieres wurde ca. 1 Stunde gewartet, bis sich alle haemodynamischen Parameter eingestellt hatten (steady state). Danach wurde mit dem eigentlichen Versuch begonnen.
Der systolische und diastolische Blutdruck wurde peripher in der Arteria femoralis über einen Statham-Druckaufnehmer gemessen. Ein über die Arteria carotis in den linken Ventrikel geschobener Millar-Tip-Katheter lieferte das Signal für den LVEDP(linksvcntrikulärer enddiastolischer Druck) und die Herzfrequenz. Mit einem zweiten, über die Vena ju-fularis eingeschobenen Tip-Katheter wurde der mittlere Blutdruck in der Arteria pulmonalis erfaßt. Die erhaltenen Ergebnisse sind in der folgenden Tabelle angegeben.

Row | Structure (SMILES) | BDm Δ (mittlerer peripherer Blutdruck) (Dosis 0,05 mg/kg i.v.) | LVEDP Δ (linksventrikulärer enddiastolischer Druck) (Dosis 0,05 mg/kg i.v.) | PAP Δ (mittlerer Pulmonalarteriendruck) (Dosis 0,05 mg/kg i.v.) | BDm Δ (mittlerer peripherer Blutdruck) (Dosis 0,1 mg/kg i.v.) | LVEDP Δ (linksventrikulärer enddiastolischer Druck) (Dosis 0,1 mg/kg i.v.) | PAP Δ (mittlerer Pulmonalarteriendruck) (Dosis 0,1 mg/kg i.v.)
1 | CNC(=O)c1c(C)no[n+]1[O-] [A] | -30 mmHg | -3 mm/Hg | -2 mmHg |  |  | 
2 | COCCNC(=O)c1no[n+]([O-])c1C [B] |  |  |  | -25 mmHg | -2,5 mm/Hg | -1 mmHg
3 | Cc1c(C(=O)NCc2cccnc2)no[n+]1[O-] [C] | -35 mmHg | -2 mm/Hg | -1 mmHg |  |  | 
